According to CN103330941A, “一种紫杉醇注射剂的药物组合物” (Individual, priority 2013, dated 2013):

Tests used:
[1] = cited from earlier work
[2] = in the human body; cited from earlier work
[3] = Experiment 2, formulation screening: dissolution of paclitaxel; type: physicochemical

| SMILES | solubility in organic solvents (in words) ([1]; methanol, ethanol or chloroform) | solubility in water (in words) ([1]; water) | effective bioavailability [2] | solubilizing (hydrotropic) effect on paclitaxel ([3]; alone) | solubilizing (hydrotropic) effect on paclitaxel ([3]; used together with 1,2-propanediol) |
| --- | --- | --- | --- | --- | --- |
| CC(=O)O[C@H]1C(=O)[C@@]2(C)[C@H]([C@H](OC(=O)c3ccccc3)[C@]3(O)C[C@H](OC(=O)[C@H](O)[C@@H](NC(=O)c4ccccc4)c4ccccc4)C(C)=C1C3(C)C)[C@]1(OC(C)=O)CO[C@@H]1C[C@@H]2O [紫杉醇, 5β,20-环氧-1,2α,4,7β,10β,13α-六羟基紫杉烷-11-烯-9-酮-4,10-二乙酸酯-2-苯甲酸酯-13[(2’R,3’S)-N-苯甲酰-3-苯基异丝氨酸酯]] | 溶解 | 几乎不溶 | 低 | – | – |
| CC(=O)Oc1ccccc1C(=O)[O-].[Na+] [乙酰水杨酸钠] | – | – | – | 具有助溶作用 | 具有增加的助溶作用 |
